Earlier results, collected in article PMC8198792, “Prediction of Anticancer Peptides with High Efficacy and Low Toxicity by Hybrid Model Based on 3D Structure of Peptides” (International Journal of Molecular Sciences, 2021).
Read-outs that look alike come from different tables or passages of the source.

Tested on: cancer cell lines
Parameters: method as in 6 sources, ref CancerPPD [45] and SATPdb ||| ref CancerPPD/SATPdb ||| ref CancerPPD, SATPdb, Swissprot (PDB) ||| ref CancerPPD/SATPdb/Swissprot(PDB) ||| ref CancerPPD / SATPdb ||| ...
Conditions: cited from earlier work
Description: Supplement ijms-22-05630-s001.zip/ACPs(seguence).xlsx, sheet "D1" | column: Activity || Supplement ijms-22-05630-s001.zip/ACPs(seguence).xlsx, sheet "D2" | column: Activity || Supplement ijms-22-05630-s001.zip/ACPs(seguence).xlsx, sheet "D3" | column: Activity || (+ 2 further places)

[1] = ACPs dataset D2 (supplement ACPs(seguence).xlsx, sheet D2), dataset label 1/0 (ACP / non-ACP), entries identified by Swissprot(PDB ID), ref CancerPPD/SATPdb/Swissprot(PDB)
[2] = ACPs dataset D5, sheet "D5", label 1 = ACP, 0 = non-ACP, ref CancerPPD [45] and SATPdb
[3] = ACPs dataset D1, 1 = ACP (positive), 0 = non-ACP (negative), label taken from databases, ref CancerPPD [45] and SATPdb
[4] = ACPs dataset D4 (sheet "D4"), label 1 = ACP, experimentally validated ACPs, ref CancerPPD [45] and SATPdb
[5] = ACPs dataset D5 (sheet "D5"), label 1 = ACP (positive set), sequences with CancerPPD/SATPdb ID, ref CancerPPD, SATPdb
[6] = ACPs dataset sheet D2, 1 = ACP (CancerPPD/SATPdb ID), 0 = non-ACP (Swissprot/PDB ID), ref CancerPPD, SATPdb, Swissprot (PDB)
[7] = ACPs dataset D5 (sheet "D5"), label 1 = ACP (positive set), 0 = non-ACP (negative set), ref CancerPPD [45] and SATPdb
[8] = ACPs dataset D1, label 1 = ACP, 0 = non-ACP (non-anticancer AMPs from SATPdb), ref CancerPPD/SATPdb
[9] = ACPs dataset D4 (sheet "D4"), label 1 = ACP (CancerPPD ID), 0 = non-ACP (non-anticancer AMP, SATPdb ID), ref CancerPPD [45] and SATPdb
[10] = ACPs dataset D3 (supplement sheet "D3"), 1 = ACP, 0 = non-ACP, ref CancerPPD [45] and SATPdb

Substance | Activity [1] | Activity [3] | Activity [4] | Activity [5] | Activity [6] | Activity [7] | also measured
MDIYVCTVCGYEYDPAKGDPDSGIKPGTKFEDLPDDWACPVCGASKDAFEKQ [2DSX X-ray 0.68 A 1-52] | 0 |  |  |  |  |  | Activity [2]: 0
MDKVQYLTRSAIRRASTIEMPQQARQNLQNLFINFCLILICLLLICIIVMLL [4KYT X-ray 2.83 B/C 1-52] | 0 |  |  |  |  |  | Activity [2]: 0
MEKVQYLTRSAIRRASTIEMPQQARQNLQNLFINFCLILICLLLICIIVMLL [1N7L NMR - A 1-52] | 0 |  |  |  |  |  | Activity [2]: 0
MELVKVVFMGWFKNESMFTKEITMMKDDVQWATTQYAEVNKALVKAFIDDKKVCEVDCRG [5HY3 X-ray 3.10,B,1-60] | 0 |  |  |  |  |  | Activity [2]: 0
MEPECNLNCTD [satpdb10075] |  | 1 | 1 | 1 | 1 |  | 
MERSTRELCLNFTVVLITVILIWLLVRSYQY [3W5A X-ray 3.01 C 1-31] |  |  |  |  | 0 | 0 | 
MESQSNAVQLMLGFGTFVLMLLGLVVELIKNSNKK [satpdb12625] |  |  |  |  |  |  | Activity [8]: 0; Activity [9]: 0
MFFSSKKCKTVSKTFRGPCVRNA [satpdb11127] |  | 0 |  |  |  |  | Activity [9]: 0
MFSPILSLEIILALATLQSVFAQPVICTTVGSAAEGS [satpdb11835] |  | 1 | 1 | 1 | 1 |  | 
MISDEQLNSLAITFGIVMMTLIVIYHAVDSTMSPKN [1RKL NMR - A 1-36] | 0 |  |  |  |  | 0 | 
MITDVQLAIFANMLGVSLFLLVVLYHYVAVNNPKKQE [2LAT NMR - A 1-37] | 0 |  |  |  |  | 0 | 
MKFYTIKLPKFLGGIVRAMLGSFRKD [2MVH NMR - A 1-26] |  |  |  |  | 0 | 0 | 
MKNAKQEHFELDQEWVELMVEAKEANISPEEIRKYLLLNKKSAHPGPAARSHTVNPF [1B0N X-ray 1.90,B,1-57] | 0 |  |  |  |  |  | Activity [2]: 0
MKVRSSVKKMCDNCKVVRRHGRVLVICSNVKHKQRQG [2ZJR X-ray 2.91,4,1-37] | 0 |  |  |  |  | 0 | 
MKVRVDADACIGCGVCENLCPDVFQLGDDGKAKVLQPETDLPCAKDAADSCPTGAISVEE [1VJW X-ray 1.75 A 1-60] | 0 |  |  |  |  |  | Activity [2]: 0
MLELLKSLVFAVIMVPVVMAIILGLIYGLGEVFNIFSGVGKKDQPGQNH [4C48 X-ray 3.30,C,1-49] | 0 |  |  |  |  | 0 | 
MLQNSAVLLLLVISASA [satpdb10067] |  | 1 | 1 | 1 | 1 |  | 
MNQGKIWTVVNPAIGIPALLGSVTVIAILVHLAILSHTTWFPAYWQGGVKKAA [1KZU X-ray 2.50 A/D/G 1-53] | 0 |  |  |  |  |  | Activity [2]: 0
MNQGKIWTVVPPAFGLPLMLGAVAITALLVHAAVLTHTTWYAAFLQGGVKKAA [1IJD X-ray 3.00 A/C/E 1-53] | 0 |  |  |  |  |  | Activity [2]: 0
MPCSCKKYCDPWEVIDGSCGLFNSKYICCREK [1EWS NMR - A 1-32] |  |  |  |  | 0 | 0 | 
MPQLVPFYFMNQLTYGFLLMITLLILFSQFFLPMILRLYVSRLFISKL [6B2Z electron microscopy 3.60,A/L,1-48] | 0 |  |  |  |  | 0 | 
MPTWAWWLFLVLLLALWAPARG [satpdb27488] |  | 1 | 1 | 1 | 1 |  | 
MRKEFHNVLSSGQLLADKRPARDYNRK [compound 3072] |  | 1 | 1 | 1 | 1 |  | 
MRLKKRFKKFFISRKEYEKIEEILDIGLAKAMEETKDDELLTYDEIKELLGDK [3BPQ X-ray 2.20,A/C,1-52] | 0 |  |  |  |  |  | Activity [2]: 0
MSAGVITGVLLVFLLLGYLVYALINAEAF [6HRA electron microscopy 3.70, D ,1-29] |  |  |  |  | 0 | 0 | 
MSGELLNAALLSFGLIFVGWALGALLLKIQGAEE [4OGQ X-ray 2.50，F，1-34] |  |  |  |  | 0 | 0 | 
MTEEMLYAALLSFGLIFVGWGLGVLLLKIQGAEKE [4I7Z X-ray 2.80,F,1-35] |  |  |  |  | 0 | 0 | 

Substance | Activity [1] | Activity [3] | Activity [4] | Activity [5] | Activity [6] | Activity [7] | also measured
MVAYWRQAGLSYIRYSQICAKAVRDALKTEFKANAMKTSGSTIKIVKVKKE [2W6J X-ray 3.84,I,1-51] | 0 |  |  |  |  |  | Activity [2]: 0
MVEPLLDGLVLGLVFATLGGLFYAAYQQYKRPNELGG [4I7Z X-ray 2.80 G 1-37] | 0 |  |  |  |  | 0 | 
MVEPLLSGIVLGLIVVTLAGLFYAAYKQYKRPNELGG [4OGQ X-ray 2.50,G,1-37] | 0 |  |  |  |  | 0 | 
MVQNDFVDSYDVTMLLQDDDGKQYYEYHKGLSLSDFEVLYGNTADEIIKLRLDKVL [2LE2 NMR - A/B 1-56] | 0 |  |  |  |  |  | Activity [2]: 0
MWKWFHNVLSWWWLLADKRPARDYNRK [compound 3074] |  | 1 | 1 | 1 | 1 |  | 
NGKQVCLDPEAPFLKKVIQKILDS [satpdb17154] |  | 1 | 1 | 1 | 1 |  | 
NGREACLDPEAPMVQKIVQKMLKG [satpdb14027] |  | 1 | 1 | 1 | 1 |  | 
NHFTLKCPKTALTEPPTLAY [compound 3362] |  | 1 | 1 | 1 | 1 |  | 
NKWKKILGKIIKVVK [compound 3497] |  |  |  |  |  | 1 | Activity [10]: 1; Activity [9]: 1
NPEDWFTPDTCAYGDSNTAWTTCTTPGQTCYTCCSSCFDVVGEQACQMSAQC [2KC6 NMR - A 1-52] | 0 |  |  |  |  |  | Activity [2]: 0
NVLLSPLSVATALSALSLGAEQRTES [satpdb18073] |  | 1 | 1 | 1 | 1 |  | 
NVWKKILGKIIKVVK [compound 4347] |  |  |  |  |  | 1 | Activity [10]: 1; Activity [9]: 1
NYQWVPYQGRVPYPRGGLLkLLKklLKKLlKL [compound 3344] |  |  |  |  |  | 1 | Activity [10]: 1; Activity [9]: 1
PAARKAARWAWRMLKKGA [compound 1614] |  | 1 | 1 | 1 | 1 |  | 
PAWRKAFRAAWRMLKKAA [compound 1610] |  | 1 | 1 | 1 | 1 |  | 
PAWRKARRWARRMKKLAA [compound 1618] |  | 1 | 1 | 1 | 1 |  | 
PDEDAINDALNKVCSTGRRQRSICKQLLKK [compound 3108] |  | 1 | 1 | 1 | 1 |  | 
PEWFKCRRWQWRMKKLGA [compound 1604] |  | 1 | 1 | 1 | 1 |  | 
PGLKGKRGDSGSPATWTTRG [satpdb10562] |  | 1 | 1 | 1 | 1 |  | 
PIDERLRTCERLSYP [satpdb14897] |  | 1 | 1 | 1 | 1 |  | 
PIEVNDDCMACEACVEICPDVFEMNEEGDKAVVINPDSDLDCVEEAIDSCPAEAIVRS [1F2G;1FXD X-ray 1.70 A 1-58] | 0 |  |  |  |  |  | Activity [2]: 0
PKLlKTFlSKWIG [satpdb12561] |  |  |  |  |  |  | Activity [8]: 0; Activity [9]: 0
PLLQATLGGGS [compound 3726] |  | 1 | 1 | 1 | 1 |  | 
PPPEE [compound 1426] |  |  |  |  |  | 1 | Activity [10]: 1; Activity [9]: 1
PRAWEYWLRLME [compound 4582] |  | 1 | 1 | 1 | 1 |  | 
PRFWEYWLRAME [compound 4586] |  | 1 | 1 | 1 | 1 |  | 
PRFWEYWLRLAE [compound 4587] |  | 1 | 1 | 1 | 1 |  | 
